Experimental data taken from the NIST ThermoML archive (doi:10.1021/je300240k).
“And” between values parts separate entries of the source, which are not always exact repeats. Equal entries are not always repeated.

Details: Liquid, Ebulliometric method (Recirculating still)

F/C=C/C(F)(F)F [trans-1,3,3,3-tetrafluoropropene]
Details | vapor or sublimation pressure
223.1 K | 21 kPa
228.08 K | 28 kPa
232.99 K | 36 kPa
238.04 K | 47 kPa
243.02 K | 61 kPa
248.04 K | 77 kPa
253.02 K | 96 kPa
257.14 K | 115 kPa
258.04 K | 119 kPa
259.15 K | 125 kPa
261.15 K | 136 kPa
263.1 K | 147 kPa
263.15 K | 147 kPa
265.15 K | 160 kPa
267.15 K | 173 kPa
268.01 K | 178 kPa
269.15 K | 186 kPa
271.15 K | 201 kPa
273.06 K | 216 kPa
273.15 K | 216 kPa
275.15 K | 233 kPa
277.15 K | 250 kPa
278.01 K | 258 kPa
279.15 K | 269 kPa
281.15 K | 288 kPa
282.93 K | 306 kPa
283.15 K | 308 kPa
285.15 K | 330 kPa
287.15 K | 352 kPa
287.89 K | 361 kPa
289.15 K | 376 kPa
291.15 K | 401 kPa
292.85 K | 423 kPa
293.15 K | 427 kPa
295.15 K | 455 kPa
297.15 K | 484 kPa
297.69 K | 492 kPa
297.87 K | 495 kPa
298.77 K | 508 kPa
299.15 K | 514 kPa
301.15 K | 546 kPa
303.15 K | 579 kPa
303.68 K | 588 kPa
305.15 K | 614 kPa and 613 kPa
307.15 K | 649 kPa
308.82 K | 681 kPa
309.15 K | 687 kPa
311.15 K | 726 kPa
312.85 K | 761 kPa
313.15 K | 767 kPa
315.15 K | 810 kPa
317.15 K | 854 kPa
317.75 K | 868 kPa
319.15 K | 900 kPa
321.15 K | 948 kPa
323.1 K | 997 kPa
323.15 K | 998 kPa
325.15 K | 1050 kPa
327.15 K | 1104 kPa
328.12 K | 1130 kPa
329.15 K | 1160 kPa
331.15 K | 1218 kPa
333.11 K | 1276 kPa
333.15 K | 1278 kPa
335.15 K | 1340 kPa
337.15 K | 1405 kPa
338.11 K | 1436 kPa
339.15 K | 1472 kPa
341.15 K | 1541 kPa
343.1 K | 1610 kPa
343.15 K | 1613 kPa
348.09 K | 1799 kPa
353.08 K | 2005 kPa
